This note sets out measurements from patent EP2058306A1, “Heteroaryl-substituted 2-pyridinyl-methylamine derivatives” (SCHWARZ PHARMA AG, priority 2007, dated 2009).

Read-outs that look alike come from different tables or passages of the source.

Test [1] addresses T1, dopamine D1 receptor (Sus scrofa, UniProt P50130).
T1 construct: native membrane preparations from porcine striatum; from tissue; host or cells: porcine striatum
Kind of test: radioligand binding assay, dopamine D1 receptor, [3H]SCH 23390. Conditions: porcine striatum membranes, mean of two to five experiments in triplicate, read-out: Ki D1. An excerpt: (§1) Biological activity of the compounds has been determined in radioligand binding assays. These experiments have been done according to methods which are described in literature (Hübner, H. et al., J. Med. Chem. (2000), 43, 7562). For the determination of binding affinity to the receptors of the dopamine D2 family membranes were established carrying the human D2long, D2short, D3 or D4.4 receptor subtype stably expressed in Chinese hamster ovary cell lines. In principle, the binding experiments started when incubating an appropriate amount of membrane with the radioligand [^3H]spiperone and the particular test compounds used in a wide range of different concentrations from subnanomolar up to micromolar ones. In the same way, binding affinities of the test compounds to the dopamine D1 receptor were determined when using native membrane preparations from porcine striatum and the D1 selective radioligand [^3H]SCH 23390.
(§2) The results of the binding experiments are summarized in Table 1 as mean values of two to five individual experiments each done in triplicate and expressed as Ki values in nM.

For test [2], the target named is T2, 5-HT1A (Sus scrofa, UniProt A0A4X1UTF5).
T2 construct: membrane preparations from porcine cortex; from tissue; host or cells: porcine cortex
T2 sequence (A0A4X1UTF5 1-422): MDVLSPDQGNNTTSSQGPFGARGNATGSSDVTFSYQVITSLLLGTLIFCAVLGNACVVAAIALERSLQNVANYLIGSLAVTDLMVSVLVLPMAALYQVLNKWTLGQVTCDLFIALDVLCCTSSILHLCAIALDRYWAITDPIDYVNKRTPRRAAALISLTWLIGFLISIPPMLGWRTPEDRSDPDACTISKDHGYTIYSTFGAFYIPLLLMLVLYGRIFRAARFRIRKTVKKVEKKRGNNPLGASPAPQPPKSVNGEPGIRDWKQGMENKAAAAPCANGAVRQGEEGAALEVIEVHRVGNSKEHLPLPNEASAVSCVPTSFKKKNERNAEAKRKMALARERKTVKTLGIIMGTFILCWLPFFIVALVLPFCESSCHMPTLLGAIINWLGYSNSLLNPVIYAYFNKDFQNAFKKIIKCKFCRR
Kind of test: radioligand binding assay, serotonin 5-HT1A receptor, [3H]WAY 100635. Particulars: porcine cortex membranes, mean of two to five experiments in triplicate, read-out: Ki 5-HT1a. As for the experimental part:
(§3) The investigation of receptor binding to the serotonin and adrenergic receptors was done according to a published procedure (Heindl, C. et al., Tetrahedron: Asymmetry (2003), 14, 3141-3152). In detail, for the determination of the binding properties to serotonin receptors membrane preparations from porcine cortex was incubated with the 5-HT1A selective radioligand [^3H]WAY 100635 or with the 5-HT2 selective compound [^3H]ketanserin. The measurement of alpha-1 and alpha-2 receptor binding was achieved when utilizing porcine cortical membranes and the selective radioligands [^3H]prazosin (for alpha-1) and [^3H]RX821002 in an assay similar to that described above.
as §2

Test [3] has as its target alpha-1. Kind of test: radioligand binding assay, adrenergic alpha-1 receptor, [3H]prazosin. Particulars: porcine cortical membranes, mean of two to five experiments in triplicate, read-out: Ki alpha1. Here is the method:
as §3, §2

The target of test [4] is human D3 (Homo sapiens, UniProt P35462). Kind of test: radioligand binding assay, dopamine D3 receptor, [3H]spiperone. Conditions: CHO cell membranes, mean of two to five experiments in triplicate, read-out: Ki D3. As for the experimental part: as §1, with “These” for “Biological activity of the compounds has been determined in radioligand binding assays. These”, “ones.” for “ones. In the same way, binding affinities of the test compounds to the dopamine D1 receptor were determined when using native membrane preparations from porcine striatum and the D1 selective radioligand [^3H]SCH 23390.”
human D3, sequence (P35462 whole entry): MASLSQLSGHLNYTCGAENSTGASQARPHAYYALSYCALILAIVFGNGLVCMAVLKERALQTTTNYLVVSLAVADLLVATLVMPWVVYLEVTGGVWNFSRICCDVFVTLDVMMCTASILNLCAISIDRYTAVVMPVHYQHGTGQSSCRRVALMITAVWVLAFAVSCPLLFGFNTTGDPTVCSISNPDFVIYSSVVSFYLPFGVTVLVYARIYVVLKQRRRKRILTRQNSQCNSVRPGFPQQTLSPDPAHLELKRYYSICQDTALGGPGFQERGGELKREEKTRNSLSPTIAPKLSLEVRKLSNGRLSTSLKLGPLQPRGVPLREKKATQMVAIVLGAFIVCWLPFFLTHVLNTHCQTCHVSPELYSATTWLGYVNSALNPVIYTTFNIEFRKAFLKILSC

Test [5] concerns the target T3, 5-HT2 (Sus scrofa, UniProt P50129).
T3 construct: membrane preparations from porcine cortex; from tissue; host or cells: porcine cortex
In words: radioligand binding assay, serotonin 5-HT2 receptor, [3H]ketanserin. More on the design: species or system porcine.

Test [6] has as its target human D2long, D2short (Homo sapiens, UniProt P14416). Kind of test: biochemical. The class given is binding. Conditions: CHO cell membranes, [3H]spiperone; mean of two to five experiments in triplicate; read-out: Ki D2. Here is the method: as §1, with “These” for “Biological activity of the compounds has been determined in radioligand binding assays. These”, “ones.” for “ones. In the same way, binding affinities of the test compounds to the dopamine D1 receptor were determined when using native membrane preparations from porcine striatum and the D1 selective radioligand [^3H]SCH 23390.”

The target in test [7] is T4, human D4.4 (Homo sapiens, UniProt P21917).
T4 sequence (P21917 1-419): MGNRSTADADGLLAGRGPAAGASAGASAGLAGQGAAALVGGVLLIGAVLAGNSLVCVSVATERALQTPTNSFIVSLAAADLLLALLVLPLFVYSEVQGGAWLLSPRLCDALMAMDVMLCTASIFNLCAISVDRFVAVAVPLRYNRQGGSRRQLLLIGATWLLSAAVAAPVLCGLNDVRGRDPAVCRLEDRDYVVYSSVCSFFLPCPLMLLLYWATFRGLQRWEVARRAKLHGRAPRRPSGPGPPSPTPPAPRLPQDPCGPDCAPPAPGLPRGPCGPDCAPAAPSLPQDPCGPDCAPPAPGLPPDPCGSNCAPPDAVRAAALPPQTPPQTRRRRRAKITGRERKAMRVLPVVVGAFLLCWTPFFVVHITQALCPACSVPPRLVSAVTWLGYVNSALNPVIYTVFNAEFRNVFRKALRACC
Kind of test: radioligand binding assay, dopamine D4.4 receptor, [3H]spiperone. Particulars: CHO cell membranes, mean of two to five experiments in triplicate, read-out: Ki D4.4.
Text: as §1, §2

Setting [8] is: porcine cortex membranes, [3H]ketanserin, mean of two to five experiments in triplicate, read-out: Ki 5-HT2.

T3 sequence (P50129 whole entry): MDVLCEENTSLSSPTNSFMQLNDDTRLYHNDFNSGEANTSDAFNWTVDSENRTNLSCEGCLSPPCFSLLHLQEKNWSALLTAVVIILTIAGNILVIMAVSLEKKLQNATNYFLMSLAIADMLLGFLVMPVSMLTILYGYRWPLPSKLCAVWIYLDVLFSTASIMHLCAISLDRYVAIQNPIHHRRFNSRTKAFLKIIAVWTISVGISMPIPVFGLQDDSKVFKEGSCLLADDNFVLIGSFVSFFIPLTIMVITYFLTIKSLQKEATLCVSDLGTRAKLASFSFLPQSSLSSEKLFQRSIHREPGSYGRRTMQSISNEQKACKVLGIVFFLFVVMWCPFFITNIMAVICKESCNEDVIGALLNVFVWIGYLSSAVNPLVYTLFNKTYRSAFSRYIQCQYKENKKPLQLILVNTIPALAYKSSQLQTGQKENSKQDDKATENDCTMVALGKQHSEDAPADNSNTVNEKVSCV
human D2long, D2short, sequence (P14416 whole entry): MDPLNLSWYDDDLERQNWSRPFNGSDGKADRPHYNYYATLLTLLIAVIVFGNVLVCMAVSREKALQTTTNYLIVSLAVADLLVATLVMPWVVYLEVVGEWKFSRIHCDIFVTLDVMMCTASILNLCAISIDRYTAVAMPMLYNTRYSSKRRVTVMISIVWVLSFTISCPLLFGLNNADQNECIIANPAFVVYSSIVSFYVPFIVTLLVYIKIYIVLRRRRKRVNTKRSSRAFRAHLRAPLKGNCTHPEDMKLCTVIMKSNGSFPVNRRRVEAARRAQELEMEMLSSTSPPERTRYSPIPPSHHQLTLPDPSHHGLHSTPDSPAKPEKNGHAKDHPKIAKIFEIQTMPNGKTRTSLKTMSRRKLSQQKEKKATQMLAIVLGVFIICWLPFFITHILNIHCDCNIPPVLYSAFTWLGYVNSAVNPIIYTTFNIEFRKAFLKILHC
T1 sequence (P50130 whole entry): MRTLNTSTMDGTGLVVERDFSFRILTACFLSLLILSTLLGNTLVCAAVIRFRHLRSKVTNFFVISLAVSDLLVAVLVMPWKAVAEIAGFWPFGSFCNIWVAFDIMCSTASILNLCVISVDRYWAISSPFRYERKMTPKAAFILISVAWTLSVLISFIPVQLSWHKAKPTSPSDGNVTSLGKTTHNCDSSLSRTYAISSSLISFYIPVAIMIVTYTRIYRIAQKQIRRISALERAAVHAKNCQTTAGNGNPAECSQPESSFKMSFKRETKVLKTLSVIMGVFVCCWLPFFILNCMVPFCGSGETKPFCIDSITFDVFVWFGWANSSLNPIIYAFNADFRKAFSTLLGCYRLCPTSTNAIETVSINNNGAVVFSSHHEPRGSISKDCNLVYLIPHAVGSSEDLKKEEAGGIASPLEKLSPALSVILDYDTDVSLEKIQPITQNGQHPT

Regarding `Cc1ccc(CNCC2(F)CCN(C(=O)c3ccc(-c4ccccn4)s3)CC2)nc1` [Example E14, [4-Fluoro-4-[[(5-methylpyridin-2-ylmethyl)amino]methyl]piperidin-1-yl]-5-pyridin-2-ylthien-2-yl-methanone], the Ki in test [1] was over 5 µM; in test [2] it was 0.05 to 0.5 µM; in test [3], 0.501 to 5 µM; in test [4] it was over 5 µM; in test [5] (setting [8]), 0.501 to 5 µM; in test [6], over 5 µM. Also, the inhibition constant Ki in test [7] is over 5 µM.
On to `Cc1ccc(CNCC2(F)CCN(C(=O)c3ccoc3)CC2)nc1` [Example E33, [4-Fluoro-4-[[(5-methylpyridin-2-ylmethyl)amino]methyl]piperidin-1-yl]-furan-3-yl-methanone], for which the Ki in test [1] is over 5 µM; in test [2] it was 0.05 to 0.5 µM; in test [3] it was over 5 µM; in test [4], over 5 µM; in test [5] (setting [8]), over 5 µM; in test [6], over 5 µM. The Ki in test [7] was over 5 µM.
For the molecule “[4-Fluoro-4-[[(5-methylpyridin-2-ylmethyl)amino]methyl]piperidin-1-yl]-indol-2-yl-methanone [Example E41]”, the Ki in test [1] is over 5 µM; in test [2] it was 0.05 to 0.5 µM; in test [3], 0.501 to 5 µM; in test [4] it was 0.501 to 5 µM; in test [5] (setting [8]) it was over 5 µM; in test [6], over 5 µM. For the same molecule, the Ki in test [7] fell in the range of 0.501 to 5 µM.
Turning to `Cc1ccc(CNCC2(F)CCN(C(=O)c3ccc(-c4cccs4)s3)CC2)nc1` [Example E15, [2,2']Bithien-5-yl-[4-fluoro-4-[[(5-methylpyridin-2-ylmethyl)amino]methyl]piperidin-1-yl]-methanone], the inhibition constant (Ki) is over 5 µM in test [1]; 0.05 to 0.5 µM in test [2]; 0.501 to 5 µM in test [3]; 0.501 to 5 µM in test [4]; 0.501 to 5 µM in test [5]; over 5 µM in test [6]. The inhibition constant (Ki) in test [7] was over 5 µM.
Take `Cc1ccc(CNCC2(F)CCN(C(=O)c3ccc(-c4ccccc4)s3)CC2)nc1` [Example E13, [4-Fluoro-4-[[(5-methylpyridin-2-ylmethyl)amino]methyl]piperidin-1-yl]-5-phenylthien-2-yl-mathanone]: the inhibitory constant (Ki) was over 5 µM in test [1]; 0.05 to 0.5 µM in test [2]; 0.501 to 5 µM in test [3]; 0.501 to 5 µM in test [4]; 0.501 to 5 µM in test [5]; 0.501 to 5 µM in test [6]. For the same molecule, the inhibitory constant (Ki) in test [7] is over 5 µM.
As to `Cc1ccc(CNCC2(F)CCN(C(=O)c3sc4sccc4c3Cl)CC2)nc1` [Example E28, 3-Chlorothieno[2,3-b]thion-2-yl-[4-fluoro-4-[[(5-methylpyridin-2-ylmothyl)amino]methyl]piperidin-1-yl]-mothanone], the Ki in test [1] was over 5 µM; in test [2], under 0.05 µM; in test [3], 0.501 to 5 µM; in test [4], 0.501 to 5 µM; in test [5], over 5 µM; in test [6] it was 0.501 to 5 µM. Besides, in test [7], the Ki was 0.05 to 0.5 µM.
For the molecule `Cc1ccc(CNCC2(F)CCN(C(=O)c3sccc3-n3cccc3)CC2)nc1` [Example E17, [4-Fluoro-4-[[(5-methylpyridin-2-ylmethyl)amino]methyl]piperidin-1-yl]-3-pyrrol-1-ylthion-2-yl-methanone], the Ki in test [1] was over 5 µM; in test [2], 0.05 to 0.5 µM; in test [3] it was 0.501 to 5 µM; in test [4], over 5 µM; in test [5] it was over 5 µM; in test [6] it was over 5 µM. Further, the inhibitory constant (Ki) in test [7] is 0.501 to 5 µM.
For the molecule `COc1c(C(=O)N2CCC(F)(CNCc3ccc(C)cn3)CC2)csc1Cl` [Example E21, 5-Chloro-4-methoxythien-3-yl-[4-fluoro-4-[[(5-methylpyridin-2-ylmethyl)amino]methyl]piperidin-1-yl]-methanone], the Ki is over 5 µM in test [1]; under 0.05 µM in test [2]; 0.501 to 5 µM in test [3]; over 5 µM in test [4]; over 5 µM in test [5] (setting [8]); over 5 µM in test [6]. The Ki in test [7] is 0.501 to 5 µM.

Broadly, the Ki is the dissociation constant of the complex between target and ligand, obtained from inhibition or displacement.
